Measurements published in patent US20090142269A1, “ISOTOYPICALLY-LABELED BENZOTHIAZOLE COMPOUNDS AS IMAGING AGENTS FOR AMYLOIDOGENIC PROTEINS” (UNIVERSITY OF OITTSBURGH-OF THE COMMONWEALTH SYSTEM OF …, priority 2005, published 2009).

tested on: not listed separately; assay: Baboon brain entry study (PET time-activity curves); type: in vivo; conditions: 40 kg baboon, 8 mCi intravenously, PET brain imaging over 2 h post injection
Protocol: A 40 kg baboon was anesthesized, immobilized, and placed on a ventilator. The baboon was positioned in a PET scanner to image the brain, and a transmission scan was performed to correct for attenuation. The baboon was injected intravenously with a solution containing 8 mCi of [F-18]-6-Methoxy-2-(4′-fluorophenyl)benzothiazole, and the brain was imaged in a series of increasing data collection time bins over 2 h post injection. Following data acquisition, the images were reconstructed and regions of interest were drawn. Decay and […] corrected time-activity curves (TAC) were generated for each of the regions to determine the quantitative time course of radioactivity in each brain region.

Structure (SMILES)	brain penetration of the radiotracer	clearance of radioactivity from normal baboon brain
COc1ccc2nc(-c3ccc([18F])cc3)sc2c1 [[F-18]-6-Methoxy-2-(4′-fluorophenyl)benzothiazole]	excellent brain penetration	rapid clearance

molecular target: T1, synthetic Aβ(1-40) (Homo sapiens, UniProt P05067); assay: Competition of [3H]BTA-1 binding from synthetic Aβ(1-40); conditions: in vitro, aggregated amyloid
T1 construct: analyzed, using synthetic Aβ(1-40)
Protocol: The characteristics of benzothiazole derivative binding were analyzed, using synthetic Aβ(1-40) and 2-(4′-[^3H]methylamino-phenyl)-benzothiazole ([^3H]BTA-1) in phosphate-buffered saline (pH 7.4), as previously described. Klunk et al., Life Sci. 69:1471 (2001); Mathis et al., Bioorg. Med. Chem. Lett. 12: 295 (2002).
The characteristics of benzothiazole derivative binding were analyzed using synthetic Aβ(1-40) and 2-(4′ [^3H]methylamino-phenyl)-benzothiazole ([^3H]BTA-1) in phosphate-buffered saline (pH 7.4), as previously described. Klunk et al., Life Sci. 69:1471 (2001); Mathis et al., Bioorg. Med. Chem. Lett., 12:295 (2002). The table below lists the inhibition constants (Ki) of exemplary benzothiazole compounds shown for competition of [^3H]BTA-1 binding from synthetic Aβ(1-40).

T1 sequence (P05067 672-711): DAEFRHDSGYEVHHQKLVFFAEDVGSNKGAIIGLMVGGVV

Structure (SMILES)	affinity of the ligand in vitro for aggregated amyloid
COc1ccc2nc(-c3ccc([18F])cc3)sc2c1 [[F-18]-6-Methoxy-2-(4′-fluorophenyl)benzothiazole]	relatively high affinity

same assay, conditions: inhibition constant for competition of [3H]BTA-1 binding from synthetic Aβ(1-40), phosphate-buffered saline pH 7.4

Structure (SMILES)	Ki
COc1cc(O)c2nc(-c3ccc(F)cc3)sc2c1	51.6 nM
COc1ccc2nc(-c3c(F)c(F)c(N)c(F)c3F)sc2c1	119 nM
Nc1ccc2nc(-c3ccc(F)cc3)sc2c1	84.8 nM
Nc1cccc(F)c1-c1nc2ccc(O)cc2s1	14 nM
O=[N+]([O-])c1cc(F)ccc1-c1nc2ccccc2s1	811 nM
Nc1ccc(F)cc1-c1nc2ccc(O)cc2s1	21.8 nM
COc1cccc2nc(-c3ccc(F)cc3)sc12	14.9 nM
CN(C)c1ccc2nc(-c3ccc(O)cc3)sc2c1	10.7 nM
Nc1c(F)cccc1-c1nc2ccc(O)cc2s1	3.1 nM
COc1ccc2sc(-c3ccc(F)cc3)nc2c1	13.5 nM
Oc1cccc2sc(-c3ccc(F)cc3)nc12	381 nM
Fc1ccc(-c2nc3ccccc3s2)cc1	43.8 nM
CNc1ccc(-c2nc3ccc(OCCOCCOCCF)cc3s2)cc1	4.9 nM
OCc1ccc(-c2nc3ccc(O)cc3s2)cc1	311 nM
Oc1ccc2nc(-c3ccc(F)c(Cl)c3)sc2c1	130 nM
COc1ccc2sc(-c3ccc(F)cc3)nc2c1OC	81.2 nM
Nc1cc(F)ccc1-c1nc2ccc(O)cc2s1	14.8 nM
COc1ccc2nc(-c3ccc(F)c(F)c3)sc2c1	154 nM
Oc1cccc2nc(-c3ccc(F)cc3)sc12	186 nM
CNc1c(F)c(F)c(-c2nc3ccc(O)cc3s2)c(F)c1F	273 nM
CNc1c(F)c(F)c(-c2nc3ccc(OC)cc3s2)c(F)c1F	26 nM
CNc1ccc(-c2nc3ccccc3s2)cc1CCCF	76.9 nM
CS(=O)(=O)c1ccc2nc(-c3ccc(F)cc3)sc2c1	1270 nM

Further lines, results first:

Ki	Structure (SMILES)
48.8 nM	CNc1cc(F)ccc1-c1nc2ccc(O)cc2s1
5.3 nM	CNc1ccc2nc(-c3ccc(O)c(F)c3)sc2c1
27.2 nM	FCCCOc1ccc2nc(-c3ccc(F)cc3)sc2c1
46 nM	CNc1c(F)cccc1-c1nc2ccc(O)cc2s1
4.9 nM	Nc1cc(F)ccc1-c1nc2ccccc2s1
9.8 nM	FCCOc1ccc2nc(-c3ccc(F)cc3)sc2c1
1.3 nM	COc1ccc(-c2nc3ccc(N(C)C)cc3s2)cc1
5.4 nM	CNc1ccc(-c2nc3ccc(O)cc3s2)c(N)c1
6 nM	COc1ccc2nc(-c3ccc(F)cc3)sc2c1
608 nM	COc1cccc2sc(-c3ccc(F)cc3)nc12
19.6 nM	Nc1ccccc1-c1nc2ccccc2s1
1.8 nM	CNc1ccc2nc(-c3ccc(OC)cc3)sc2c1
18.9 nM	Oc1ccc2nc(-c3ccc(F)c(F)c3)sc2c1
33.5 nM	COc1cc(OC)c2sc(-c3ccc(F)cc3)nc2c1
116 nM	COc1cc(OC)c2nc(-c3ccc(F)cc3)sc2c1
1000 nM	Nc1c(F)c(F)c(-c2nc3ccc(O)cc3s2)c(F)c1F

Ki	Structure (SMILES)
504 nM	Oc1ccc2sc(-c3ccc(F)cc3)nc2c1
133 nM	N#Cc1ccc2nc(-c3ccc(F)cc3)sc2c1
2.6 nM	Ic1ccc(-c2nc3ccccc3s2)cc1
16.6 nM	COc1ccc2nc(-c3ccc(F)cc3OC)sc2c1
180 nM	Oc1ccc2nc(-c3ccc(F)cc3)sc2c1
31.3 nM	Oc1ccc2nc(-c3ccc(F)cc3O)sc2c1
8.8 nM	Brc1ccc(-c2nc3ccccc3s2)cc1
334 nM	COc1ccc(OC)c2sc(-c3ccc(F)cc3)nc12
46.6 nM	Oc1ccc2nc(-c3ccc(CF)cc3)sc2c1
1.2 nM	CNc1ccc2nc(-c3ccc(O)cc3F)sc2c1
19.1 nM	Cc1ccc(-c2nc3ccccc3s2)cc1
94.9 nM	CNc1cc(N)ccc1-c1nc2ccc(O)cc2s1
88.3 nM	COc1cc2nc(-c3ccc(F)cc3)sc2cc1OC
7.4 nM	CNc1ccc2nc(-c3ccc(F)cc3)sc2c1
1.1 nM	COc1ccc2nc(-c3ccc(F)cc3O)sc2c1
